Laboratory results: US20250319053A1, “INHIBITORS OF THE PEPTIDYL-PROLYL CIS/TRANS ISOMERASE (PIN1), COMBINATIONS AND USES THEREOF” (DANA-FARBER CANCER INSTITUTE, INC., priority 2021, published 2025)

Tested on: PDAC tumors in GDA mice
Experiment: KPC mouse-derived orthotopic allograft (GDA) mouse model
Assay type: in vivo
Experimental: 2) the KPC Genetically engineered mouse-derived orthotopic allografts (GDA) mouse model (Hingorani et al., Cancer Cell 7, 469-483 (2005); Li et al., Comput Struct Biotechnol J 17, 498-506 (2019)). Mouse PDAC cells were established from KPC mouse pancreatic tumor tissues, followed by orthotopically injecting 1×10^6 mouse PDAC cells in 50 μL Matrigel (356231, Coaning) into the pancreas of female 8 week-old syngeneic immunocompetent C57BL/6 mice (Jackson Laboratories). 3) PDAC Patient-derived Tumor orthotopic xenografted (PDTX) mouse model (Gilles et al., Clin Cancer Res 24, 1734-1747 (2018); Rubio-Viqueira et al., Clin Cancer Res 12, 4652-4661 (2006)). PDAC PDX tumors were obtained from Dr. Muthuswamy and Dr. Hidalgo and divided into 4×2 mm pieces, followed by xenografting orthotopically into the pancreas of female 8-week-old immunodeficient NOD.Cg-Prkdc^scid Il12rg^tm1Wjl/SzJ (NOD scid gamma; NSG) mice (Jackson Laboratories). 4) PDAC Patient-derived Organoid and CAFs orthotopic xenograft (PDOX) mouse model (Dantes et al., JCI Insight 5, 137809 (2020); (Koikawa et al., Cancer letters 425, 65-77 (2018)). 5×10^4 patient derived PDAC organoids and 5×10^4 patient derived CAFs in 50 μL of Matrigel were injected orthotopically into the pancreas of female 8 week-old immunodeficient NSG mice (Jackson Laboratories).
Briefly, all mice were randomly selected to receive treatments groups. Tumor sizes were measured by weekly palpation with electronic caliper or ultrasound, and when tumors were reached >0.5 cm, the treatment was started. Briefly, animals were placed under general anesthesia with 2%-3% isoflurane once a week. Under general anesthesia, the abdominal wall became very flaccid, and the muscle tone of the mouse was very low. The mouse was scuffed with the left hand to allow for palpation and measurement with the right hand. This allowed to detect the firm pancreatic mass by palpation, and to determine its size by electronic caliper measurements. […] In the transgenic KPC mice, where spontaneous tumor development was expected, weekly palpation was started from age 8 weeks. When the tumor by palpation after age 12 weeks could not be detected, the mice were monitored by ultrasound. Once the maximum length >0.5 cm tumor was detected, the mice were randomized to treatment, and then followed tumor growth by electronic caliper measurement. To validate the external caliper measurements, the tumor size was measured prior to euthanization of the mice and then measured the actual tumor size upon necropsy to ascertain concordance. […] To evaluate the effects of CD8+ T cell or NK1.1′ cell depletion in GDA mice, mice were treated with anti-CD8 (200 μg, i.p., twice a week, BE0117, BioXcell) (Pantelidou et al., Cancer Discov. 9, 722-37 (2019)) or anti-NK1.1 (25 μg, i.p., twice a week, BE0036, BioXcell) (Waggoner et al., Nature 481, 394-398 (2011)), or vehicle (IgG isotype control), and/or Sulfopin (40 mg/kg, i.p., every day) (Pin1i−2) or vehicle (Sulfopin diluted solution; 5% NMP, 5% Solutol, 20% DMSO), and/or anti-PD1 (200 μg, i.p., every 3-4 days, BE0146, BioXcell) or vehicle (IgG isotype control). To test Sulfopin and/or PTX and/or anti-CTLA4 combination treatment in GDA mice, mice were treated with Sulfopin (40 mg/kg, i.p., every day) (Pin1i−2) or vehicle (Sulfopin diluted solution; 5% NMP, 5% Solutol, 20% DMSO), and/or PTX (10 mg/kg i.p., weekly) or vehicle (PTX diluted solution; 10% DMSO, 40% PEG300, 5% Tween 80, 45% Saline), and/or anti-CTLA-4 (250 μg, i.p., every 3-4 days, BE0032, BioXcell) or vehicle (IgG isotype control).

[1] = GDA mice, FIG. 9A, GEM 20 mg/kg, n=6, vehicle 34 days

Structure (SMILES)	Median survival [1]	desmoplastic (fibrotic) and immunosuppressive TME (GDA mice)	CAF activation (IF for αSMA or PDGFRα) (GDA mice, 4 weeks)	collagen deposition (Sirius Red staining) (GDA mice, 4 weeks)	Median survival (GDA mice, FIG. 9I, treated up to 150 days, GEM 10 mg/kg weekly, αPD1, n=8, vehicle 36.5 days)	tumor growth (overt tumor-bearing GDA mice)
Nc1ccn([C@@H]2O[C@H](CO)[C@@H](O)C2(F)F)c(=O)n1 [GEM, gemcitabine, reference compound]	42 days					
CC(C)(C)CN(C(=O)CCl)C1CCS(=O)(=O)C1 (stereo not shown) [Pin1i−2, sulfopin]	56 days	potently reduce the fibrotic TME	significantly reduced	significantly reduced	54 days	significantly reduced tumor growth
